In patent US7544664B2, “Sequences facilitating penetration of a substance of interest” (priority 2003, dated 2009):
Where two headings read alike, the source gives them in different places. Where a SMILES comes first, the peptide text is derived from it. The star is where a group is joined. X2 = O=C(CCCCCN1C(=O)CC(*)C1=O)OCCOC(=O)CCCc1ccc(N(CCCl)CCCl)cc1

Legend:
[1] = system: OVCAR-3: human ovary carcinoma; experiment: cells; assay type: cell-based; details: Homo sapiens; OVCAR-3 ovary carcinoma; 1 h incubation + 72 h post-incubation
Procedure: OVCAR-3: human ovary carcinoma (origin: ATCC #HTB-161)
(§1) Viability assays were performed. Briefly, cells are seeded in 96-well plates and incubated with increasing concentrations of drugs for 1 hour then cells are rinsed and incubated with fresh medium without drugs for 72 hours. A WST-1 test (from Roche) was performed and IC50 values (drug concentration that inhibits 50% of cell viability) were estimated from sigmoidal regressions.
(§2) We tested the inhibition of in vitro cell proliferation of human carcinoma cells, and we calculated IC50 values=drug concentration that inhibits 50% of cell viability.

[2] = system: NCI-H1299: human non small cell lung carcinoma; experiment: cells; assay type: cell-based; details: Homo sapiens, NCI-H1299; H1299 NSCLC; 1 h incubation + 72 h post-incubation
Procedure: NCI-H1299: human non small cell lung carcinoma (NSCLC) (origin: ATCC #CRL-5803)
as §1, §2

[3] = Solubility in water / aqueous solutions
[4] = system: K562: human chronic myelogenous leukemia; experiment: Viability assay (WST-1); assay type: cell-based
Procedure: K562: human chronic myelogenous leukemia (CML) (origin: ATCC #CCL-243).
(§3) Viability assays were performed. Briefly, cells are seeded in 96-well plates and incubated with increasing concentrations of drugs (i) for 1 hour then cells are rinsed and incubated with fresh medium without drugs for 48 hours, or (ii) for 48 hours. A WST-1 test (from Roche) was performed and IC50 values (drug concentration that inhibits 50% of cell viability) were estimated from sigmoidal regressions.
(§4) DPV15-E-Chl conjugate was compared to non-conjugated Chl and 5FUra for the inhibition of in vitro cell proliferation of human carcinoma and leukemia cells. We calculated IC50 values=drug concentration that inhibits 50% of cell viability.

[5] = system: HCT116: human colon carcinoma; experiment: cells; assay type: cell-based; details: for more efficient than Chl: HCT116 colon carcinoma; for IC50: read-out: IC50 values
Procedure: HCT116: human colon carcinoma (origin: ATCC #CCL-247)
as §3, §4

[6] = system: HT29: human colon carcinoma; experiment: cells; assay type: cell-based; details: for IC50: read-out: IC50 values
Procedure: HT29: human colon carcinoma, low P-gp expression (origin: ATCC #HTB-38)
as §3, §4

[7] = Stability in H2O+0.1% TFA overnight at room temperature; assay type: physicochemical; details: protected from light, Chl 0.1 mg/ml, DPV15-E-Chl 0.5 mg/ml in H2O+0.1% TFA
Procedure: After overnight incubation at room temperature and protected from light, both Chl (0.1 mg/ml in H2O+0.1% TFA) and DPV15-E-Chl (0.5 mg/ml in H2O+0.1% TFA) are degraded (50% degradation).

[8] = system: HCT116 human colorectal carcinoma; experiment: In vivo anti-tumor activity, first experiment (DPV15-doxorubicin); set-up: species or system nude mice; details: Table 13, Q2D3×3W
Procedure: (§5) Mice: Athymic (nu/nu) nude mice, female, NMRI-nu (nu/nu)-Nude Tumor model: HCT116 human colorectal carcinoma (ATCC Number: CCl-247) Experiment has been performed on tumor-bearing mice. The HCT116 tumors have been established by intradermal injection of 100 μl of the cell suspension (10^7 cells/0.1 mL) on the right flank of the mouse. […] After complete dissolution a solution of 0.9% NaCl for injection (Cooper) 0.9% was added.

[9] = system: HCT116 human colorectal carcinoma; experiment: In vivo anti-tumor activity, second experiment (DPV15b-doxorubicin); set-up: species or system nude mice; details: Q2D3×3W
Procedure: as §5

[10] = system: HCT116 human colorectal carcinoma; experiment: In vivo anti-tumor activity of DPV7b-doxorubicin conjugate; set-up: species or system Nude mice; details: Table 15, Q2D3×3W
Procedure: Nude mice are injected with 10^7 HCT116 cells (HCT116 human colorectal carcinoma cell line) intradermically in the right flank. Treatments were performed on established solid tumors (tumors size is about 80 to 90 mm^3) at Day 3. Mice were randomized in different groups (equivalent tumors size), 6 mice by group.

[11] = HCT116 colon, 1 h incubation + 48 h
[12] = HT29 colon carcinoma, short exposure
[13] = HT29 colon, 1 h incubation + 48 h

CC(=O)O[C@H]1C(=O)[C@@]2(C)[C@H]([C@H](OC(=O)c3ccccc3)[C@]3(O)C[C@H](OC(=O)[C@H](O)[C@@H](NC(=O)c4ccccc4)c4ccccc4)C(C)=C1C3(C)C)[C@]1(OC(C)=O)CO[C@@H]1C[C@@H]2O [Paclitaxel (Hauser), Paclitaxel]
IC50 [1]: 0.04 ± 0.02 µM
IC50 [2]: 0.23 ± 0.17 µM
Solubility in water / aqueous solutions [3]: not soluble

CC(C)C[C@H](NC(=O)[C@H](CCCNC(=N)N)NC(=O)[C@H](CO)NC(=O)[C@H](CCC(N)=O)NC(=O)[C@H](CCCNC(=N)N)NC(=O)[C@H](CCC(=O)O)NC(=O)[C@H](CCCNC(=N)N)NC(=O)[C@H](CCCNC(=N)N)NC(=O)[C@@H](N)CC(C)C)C(=O)N[C@@H](CCCNC(=N)N)C(=O)N[C@@H](CCCNC(=N)N)C(=O)N[C@@H](CCC(=O)O)C(=O)N[C@@H](CCCNC(=N)N)C(=O)N[C@@H](CCC(N)=O)C(=O)N[C@@H](CO)C(=O)N[C@@H](CCCNC(=N)N)C(=O)N[C@@H](CSC1CC(=O)N(CCCCCC(=O)OCCOC(=O)CCCc2ccc(N(CCCl)CCCl)cc2)C1=O)C(=O)O (some centres unmarked) [DPV15-E-Chl] (H-LRRERQSRLRRERQSRC(X2)-OH)
IC50 ([4]; 1 h incubation + 48 h): 30 µM
IC50 ([4]; 48 h incubation): 30 µM
more efficient than Chl ([4]; long exposure): 8 fold
more efficient than Chl ([4]; short exposure): ≥ 16 fold
more efficient than Chl ([5]; long exposure): 8 fold
more efficient than Chl ([5]; short exposure): 12 fold
IC50 [5, 11]: 43 ± 15 µM
IC50 ([5]; HCT116 colon, 48 h incubation): 25 ± 7 µM
more efficient than 5FUra [6, 12]: ≥ 17 fold
more efficient than Chl [6, 12]: 11 fold
IC50 [6, 13]: 60 µM
IC50 ([6]; HT29 colon, 48 h incubation): 325 µM
degradation after overnight incubation [7]: 50%
solubility [3]: ≥ 10000 µg/mL

COc1cccc2c1C(=O)c1c(O)c3c(c(O)c1C2=O)C[C@@](O)(C(=O)CO)C[C@@H]3O[C@H]1C[C@H](N)[C@H](O)[C@H](C)O1 [Doxorubicin]
IC50 [1]: 7.3 ± 4.2 µM
IC50 [2]: 0.62 ± 0.32 µM
Tumor doubling time ([8]; 3.5 μmol/kg i.v.): 10.20 days
Tumor growth delay ([8]; 3.5 μmol/kg i.v.): 21.20 days
Tumor growth delay ([8]; 5 μmol/kg i.v.): 26.40 days
Tumor doubling time ([8]; 6.5 μmol/kg i.v.): 22.90 days
Tumor growth delay ([8]; 6.5 μmol/kg i.v.): 35.29 days
mice body weight loss ([9]; 7 μmol/kg i.v.): > 20%
Tumor growth delay ([9]; Table 14, 5 μmol/kg i.v.): 27.86 days
Tumor growth delay ([9]; Table 14, 6 μmol/kg i.v.): 29.98 days
Tumor doubling time ([9]; Table 14, 7 μmol/kg i.v.): 13.38 days
Tumor growth delay ([9]; Table 14, 7 μmol/kg i.v.): 35.16 days
Tumor doubling time ([10]; 3.5 μmol/kg i.v.): 10.2 days
Tumor growth delay ([10]; 3.5 μmol/kg i.v.): 21.20 days
Tumor growth delay ([10]; 5 μmol/kg i.v.): 26.40 days
Tumor doubling time ([10]; 6.5 μmol/kg i.v.): 22.9 days
Tumor growth delay ([10]; 6.5 μmol/kg i.v.): 35.29 days

O=C(O)CCCc1ccc(N(CCCl)CCCl)cc1 [Chl, Chlorambucil]
IC50 ([4]; Homo sapiens, 1 h incubation + 48 h): > 500 µM
IC50 ([4]; Homo sapiens, 48 h incubation): 250 ± 70 µM
IC50 ([5]; Homo sapiens, HCT-116, 48 h): 200 ± 70 µM
IC50 ([6]; Homo sapiens, HT-29, 48 h): 250 ± 70 µM
degradation after overnight incubation [7]: 50%
Solubility in water / aqueous solutions [3]: not soluble

O=c1[nH]cc(F)c(=O)[nH]1 [5FUra]
IC50 [5, 11]: 113 ± 40 µM
IC50 ([5]; HCT116 colon, 48 h incubation): 8.5 ± 7.9 µM
IC50 [6, 13]: > 1000 µM
IC50 ([6]; HT29 colon, 48 h incubation): 725 ± 388 µM
